Literature values, collected in PubChem BioAssay AID1259409 (Chemical Carcinogenesis Research Information System (CCRIS), 2018).

Tested on: rodent chemically induced tumor inhibition, incidence and multiplicity
Assay: CCRIS tumor inhibitor studies

C/C(=C\c1ccc(C(=O)O)cc1)c1cc2c(s1)CCCC2(C)C
tumour outcome (control, treated, inhibition, significance) (Carcinogen: 7,12-DIMETHYLBENZ[A]ANTHRACENE, 57-97-6, Dose [Inhibitor]: 0.17 NMOL IN 0.2 ML ACETONE 1 HR PRIOR TO EACH PROMOTER DOSE FOR 12 WK (STUDY DURATION: 14 WK), Route [Inhibitor]: DERMAL, Species: MOUSE, Strain/Sex: SENCAR/FEMALE, Target Tissue: Type of Lesion: SKIN: PAPILLOMA, Dose [Carcinogen]: 200 NMOL IN 0.2 ML ACETONE ONCE, Promoter: 12-O-TETRADECANOYLPHORBOL-13-ACETATE, 16561-29-8): 100%, 100%, 0%, not calculated
tumour outcome (control, treated, inhibition, significance) (Carcinogen: 7,12-DIMETHYLBENZ[A]ANTHRACENE, 57-97-6, Dose [Inhibitor]: 0.17 NMOL IN 0.2 ML ACETONE 1 HR PRIOR TO EACH PROMOTER DOSE FOR 20 WK (STUDY DURATION: 22 WK), Route [Inhibitor]: DERMAL, Species: MOUSE, Strain/Sex: CD-1/FEMALE, Target Tissue: Type of Lesion: SKIN: PAPILLOMA, Dose [Carcinogen]: 200 NMOL IN 0.2 ML ACETONE ONCE, Promoter: 12-O-TETRADECANOYLPHORBOL-13-ACETATE, 16561-29-8): 94%, 89%, 5%, not calculated
tumour outcome (control, treated, inhibition, significance) (Carcinogen: 7,12-DIMETHYLBENZ[A]ANTHRACENE, 57-97-6, Dose [Inhibitor]: 1.7 NMOL IN 0.2 ML ACETONE 1 HR PRIOR TO EACH PROMOTER DOSE FOR 12 WK (STUDY DURATION: 14 WK), Route [Inhibitor]: DERMAL, Species: MOUSE, Strain/Sex: SENCAR/FEMALE, Target Tissue: Type of Lesion: SKIN: PAPILLOMA, Dose [Carcinogen]: 200 NMOL IN 0.2 ML ACETONE ONCE, Promoter: 12-O-TETRADECANOYLPHORBOL-13-ACETATE, 16561-29-8): 100%, 80%, 20%, not calculated
tumour outcome (control, treated, inhibition, significance) (Carcinogen: 7,12-DIMETHYLBENZ[A]ANTHRACENE, 57-97-6, Dose [Inhibitor]: 1.7 NMOL IN 0.2 ML ACETONE 1 HR PRIOR TO EACH PROMOTER DOSE FOR 20 WK (STUDY DURATION: 22 WK), Route [Inhibitor]: DERMAL, Species: MOUSE, Strain/Sex: CD-1/FEMALE, Target Tissue: Type of Lesion: SKIN: PAPILLOMA, Dose [Carcinogen]: 200 NMOL IN 0.2 ML ACETONE ONCE, Promoter: 12-O-TETRADECANOYLPHORBOL-13-ACETATE, 16561-29-8): 94%, 52%, 45%, not calculated
tumour outcome (control, treated, inhibition, significance) (Carcinogen: 7,12-DIMETHYLBENZ[A]ANTHRACENE, 57-97-6, Dose [Inhibitor]: 17 NMOL IN 0.2 ML ACETONE 1 HR PRIOR TO EACH PROMOTER DOSE FOR 12 WK (STUDY DURATION: 14 WK), Route [Inhibitor]: DERMAL, Species: MOUSE, Strain/Sex: SENCAR/FEMALE, Target Tissue: Type of Lesion: SKIN: PAPILLOMA, Dose [Carcinogen]: 200 NMOL IN 0.2 ML ACETONE ONCE, Promoter: 12-O-TETRADECANOYLPHORBOL-13-ACETATE, 16561-29-8): 100%, 3%, 97%, not calculated
tumour outcome (control, treated, inhibition, significance) (Carcinogen: 7,12-DIMETHYLBENZ[A]ANTHRACENE, 57-97-6, Dose [Inhibitor]: 17 NMOL IN 0.2 ML ACETONE 1 HR PRIOR TO EACH PROMOTER DOSE FOR 20 WK (STUDY DURATION: 22 WK), Route [Inhibitor]: DERMAL, Species: MOUSE, Strain/Sex: CD-1/FEMALE, Target Tissue: Type of Lesion: SKIN: PAPILLOMA, Dose [Carcinogen]: 200 NMOL IN 0.2 ML ACETONE ONCE, Promoter: 12-O-TETRADECANOYLPHORBOL-13-ACETATE, 16561-29-8): 94%, 0%, 100%, not calculated

CCNC(=O)/C=C(C)/C=C/C=C(C)/C=C/c1c(C)cc(OC)c(C)c1C
tumour outcome (control, treated, inhibition, significance) (Carcinogen: N,N-DIMETHYLNITROSAMINE, 62-75-9, Dose [Inhibitor]: 60 MG/KG OF DIET DAILY FOR 26 WK STARTING 2 D AFTER CARCINOGEN TREATMENT AT 6 WK OF AGE AND THEN OBSERVED UNTIL DEATH (S, Route [Inhibitor]: ORAL, Species: RAT, Strain/Sex: WISTAR/FEMALE, Target Tissue: Type of Lesion: KIDNEY: EPITHELIAL TUMOR, Dose [Carcinogen]: 40 MG/KG BW ONCE, Promoter: NONE USED): 13/27 (48%), 21/35 (60%), -25%, not significant
tumour outcome (control, treated, inhibition, significance) (Carcinogen: N,N-DIMETHYLNITROSAMINE, 62-75-9, Dose [Inhibitor]: 60 MG/KG OF DIET DAILY FOR 26 WK STARTING 2 D AFTER CARCINOGEN TREATMENT AT 6 WK OF AGE AND THEN OBSERVED UNTIL DEATH (S, Route [Inhibitor]: ORAL, Species: RAT, Strain/Sex: WISTAR/FEMALE, Target Tissue: Type of Lesion: KIDNEY: MESENCHYMAL TUMOR, Dose [Carcinogen]: 40 MG/KG BW ONCE, Promoter: NONE USED): 22/27 (82%), 26/35 (74%), 10%, not significant
tumour outcome (control, treated, inhibition, significance) (Carcinogen: N-METHYL-N-NITROSOUREA, 684-93-5, Dose [Inhibitor]: 60 MG/KG OF DIET DAILY STARTING 5 D AFTER FINAL INSTILLATION OF CARCINOGEN AND CONTINUING THROUGH END OF STUDY (STUDY DU, Route [Inhibitor]: ORAL, Species: RAT, Strain/Sex: F344/MALE, Target Tissue: Type of Lesion: COLON: INVASIVE TUBULOPAPILLARY ADENOCARCINOMA, Dose [Carcinogen]: 0.5 MG 2/WK FOR 8 WK, Promoter: NONE USED): 33%, 19%, 42%, not significant
tumour outcome (control, treated, inhibition, significance) (Carcinogen: N-METHYL-N-NITROSOUREA, 684-93-5, Dose [Inhibitor]: 60 MG/KG OF DIET DAILY STARTING 5 D AFTER FINAL INSTILLATION OF CARCINOGEN AND CONTINUING THROUGH END OF STUDY (STUDY DU, Route [Inhibitor]: ORAL, Species: RAT, Strain/Sex: F344/MALE, Target Tissue: Type of Lesion: COLON: INVASIVE TUBULOPAPILLARY ADENOCARCINOMA, Dose [Carcinogen]: 1 MG 2/WK FOR 8 WK, Promoter: NONE USED): 80%, 85%, -6%, not significant
tumour outcome (control, treated, inhibition, significance) (Carcinogen: N-METHYL-N-NITROSOUREA, 684-93-5, Dose [Inhibitor]: 60 MG/KG OF DIET DAILY STARTING 5 D AFTER FINAL INSTILLATION OF CARCINOGEN AND CONTINUING THROUGH END OF STUDY (STUDY DU, Route [Inhibitor]: ORAL, Species: RAT, Strain/Sex: F344/MALE, Target Tissue: Type of Lesion: COLON: INVASIVE TUBULOPAPILLARY ADENOCARCINOMA, Dose [Carcinogen]: 2 MG 2/WK FOR 8 WK, Promoter: NONE USED): 95%, 100%, -5%, not significant

CC(N)C(=O)NCC(=O)NC1CSSCC(C(=O)O)NC(=O)C(CO)NC(=O)C(C(C)O)NC(=O)C(Cc2ccccc2)NC(=O)C(C(C)O)NC(=O)C(CCCCN)NC(=O)C(Cc2c[nH]c3ccccc23)NC(=O)C(Cc2ccccc2)NC(=O)C(Cc2ccccc2)NC(=O)C(CC(N)=O)NC(=O)C(CCCCN)NC1=O (configuration not stated)
tumour outcome (control, treated, inhibition, significance) (Carcinogen: N-NITROSOMORPHOLINE, 59-89-2, Dose [Inhibitor]: 0, 200 UG/KG BW 1/2 D FOR DURATION OF STUDY (STUDY DURATION: 16 WK), Route [Inhibitor]: SUBCUTANEOUS, Species: RAT, Strain/Sex: SPRAGUE-DAWLEY/MALE, Target Tissue: Type of Lesion: LIVER: HEPATOCELLULAR CARCINOMA, Dose [Carcinogen]: 175 MG/L DRINKING WATER FOR 8 WK, Promoter: NONE USED): 8/25 (32%), 4/25 (16%), 50%, not significant
